This is an account of results in patent publication US12076301B2, “Engaging the cervical spinal cord circuitry to re-enable volitional control of hand function in tetraplegic subjects” (The Regents of the University of California, priority 2013, dated 2024).

For the experiment, the system named is subjects with a chronic motor complete cervical injury. The experiment in a line: Maximal handgrip strength (handgrip force measurement device) in tetraplegic subjects during pcEmc with oral buspirone. The class given is in vivo, human. Here is the method:
Six subjects with chronic (18-36 months) spinal cord injury (SCI, traumatic cervical injury, ASIA B with no motor strength below the injury) were tested to determine if hand function can be improved by neuromodulating the cervical spinal cord. All subjects initially had minimal hand strength, a condition reflecting the majority of cervical SCI patients. Our experimental approach began with 6 weeks of baseline testing (Phase 1), followed by three 2-week treatment periods (Phases 2-4), and then by a period of approximately three months without any treatment at the end of which there was a final 2-week testing period (Phase 5). pcEmc at the C5 spinal segment (Phase 2) increased hand strength in 4/6 subjects compared to baseline Phase 1 (FIG. 1, panels A-G). […]
Voluntary motor control data were assessed using a handgrip force measurement device. […] The number of completed contraction-release sequences across the lines was determined. […] The percentage of data points that fell inside a circular window at a sampling of 15 Hz was determined. […]
The transcutaneous stimulation device is non-invasive. […] Varying combinations of these stimulation parameters were systematically assessed to obtain optimum facilitation of voluntary hand contraction by identification of the relative activation levels of the motor pools studied (data not shown). […]

Regarding `O=C1CC2(CCCC2)CC(=O)N1CCCCN1CCN(c2ncccn2)CC1` [buspirone], the “Mean hand strength increase” value (after pcEmc plus fEmc (buspirone) treatment, 6 subjects, 7.5 mg buspirone twice daily for 2 weeks, oral) is “greater than 300%”. Under “during buspirone treatment (Phase 3) with pcEmc at C5, number of subjects out of 6”, the “Subjects with increased hand strength compared to Phase 1 and 2” value was 4/6.
